Data published in the supplement of paper PMC10307832.

What was measured:
Assay in all cases: relative viability (nuclei count vs DMSO), 5 days (fraction); higher = more cells survive
IPA-3 + Lapatinib = compound: C1=CC=C2C(=C1)C=CC(=C2SSC3=C(C=CC4=CC=CC=C43)O)O [IPA-3] + CS(=O)(=O)CCNCc1ccc(-c2ccc3ncnc(Nc4ccc(OCc5cccc(F)c5)c(Cl)c4)c3c2)o1 [Lapatinib] (partner 2 µM)
In short: (§1)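 Nuclei were stained with Hoechst during a one-step fixation (final 0.05% Triton X-100, 1% formaldehyde, 1 ug/ml Hoechst) carried out 5 days after dosing, then counted on 4× images. The cells, lung cancer lines in 1536-well plates, had been dosed by pin tool the day after seeding with one drug alone or a fixed anchor-drug dose plus five library-drug doses (not always all listed) in √10 steps. Relative viability is the nuclei count in treated wells divided by that in vehicle wells, and each value is the median of duplicate plates.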

IPA-3 + Pictilisib = compound: C1=CC=C2C(=C1)C=CC(=C2SSC3=C(C=CC4=CC=CC=C43)O)O [IPA-3] + CS(=O)(=O)N1CCN(Cc2cc3nc(-c4cccc5[nH]ncc45)nc(N4CCOCC4)c3s2)CC1 [Pictilisib] (partner 1 µM)
In short: as §1

RAF265 + Pictilisib = compound: Cn1c(Nc2ccc(C(F)(F)F)cc2)nc2cc(Oc3ccnc(-c4ncc(C(F)(F)F)[nH]4)c3)ccc21 [RAF265] + CS(=O)(=O)N1CCN(Cc2cc3nc(-c4cccc5[nH]ncc45)nc(N4CCOCC4)c3s2)CC1 [Pictilisib] (partner 1 µM)
In short: as §1

RAF265 + Decitabine = compound: Cn1c(Nc2ccc(C(F)(F)F)cc2)nc2cc(Oc3ccnc(-c4ncc(C(F)(F)F)[nH]4)c3)ccc21 [RAF265] + Nc1ncn([C@H]2C[C@H](O)[C@@H](CO)O2)c(=O)n1 [Decitabine] (partner 2 µM)
In short: as §1

Cell Line | relative viability (IPA-3 + Lapatinib; first compound 0.2 µM) | relative viability (IPA-3 + Lapatinib; first compound 0.6325 µM) | relative viability (IPA-3 + Lapatinib; first compound 2 µM) | relative viability (IPA-3 + Lapatinib; first compound 6.325 µM) | relative viability (IPA-3 + Lapatinib; first compound 20 µM) | relative viability (IPA-3 + Pictilisib; first compound 0.2 µM) | relative viability (IPA-3 + Pictilisib; first compound 0.6325 µM) | relative viability (IPA-3 + Pictilisib; first compound 2 µM) | relative viability (IPA-3 + Pictilisib; first compound 6.325 µM) | relative viability (IPA-3 + Pictilisib; first compound 20 µM) | relative viability (RAF265 + Pictilisib; first compound 0.01 µM) | relative viability (RAF265 + Pictilisib; first compound 0.03162 µM) | relative viability (RAF265 + Pictilisib; first compound 0.1 µM) | relative viability (RAF265 + Pictilisib; first compound 0.3162 µM) | relative viability (RAF265 + Pictilisib; first compound 1 µM) | relative viability (RAF265 + Decitabine; first compound 0.01 µM) | relative viability (RAF265 + Decitabine; first compound 0.03162 µM) | relative viability (RAF265 + Decitabine; first compound 0.1 µM) | relative viability (RAF265 + Decitabine; first compound 0.3162 µM) | relative viability (RAF265 + Decitabine; first compound 1 µM)
H3255 | 0.213 | 0.277 | 0.184 | 0.2 | 0.23 | 0.454 | 0.465 | 0.44 | 0.573 | 0.558 | 0.494 | 0.512 | 0.522 | 0.132 | 0.336 | 0.666 | 0.564 | 0.682 | 0.198 | 0.43
HARA | 0.764 | 0.659 | 0.57 | 0.793 | 0.74 | 0.452 | 0.346 | 0.333 | 0.4 | 0.402 | 0.367 | 0.267 | 0.271 | 0.287 | 0.134 | 0.652 | 0.468 | 0.53 | 0.426 | 0.414
HCC-15 | 1.08 | 0.77 | 0.806 | 0.868 | 0.958 | 0.853 | 0.783 | 0.724 | 0.776 | 0.841 | 0.805 | 0.625 | 0.645 | 0.49 | 0.333 | 0.714 | 0.613 | 0.524 | 0.545 | 0.42
HCC-44 | 0.995 | 1.02 | 1.05 | 0.883 | 1.03 | 0.605 | 1.49 | 0.53 | 1.04 | 0.63 | 0.631 | 0.697 | 0.55 | 0.507 | 0.561 | 0.945 | 0.951 | 0.95 | 0.967 | 0.947
HCC-78 | 1.01 | 0.7 | 0.924 | 0.763 | 1.02 | 0.23 | 0.218 | 0.229 | 0.229 | 0.282 | 0.224 | 0.216 | 0.291 | 0.171 | 0.145 | 0.852 | 0.73 | 0.752 | 0.731 | 0.669
HCC-366 | 1.08 | 1.05 | 1.09 | 1.09 | 1.18 | 0.161 | 0.152 | 0.0986 | 0.184 | 0.136 | 0.18 | 0.211 | 0.181 | 0.189 | 0.147 | 0.321 | 0.319 | 0.402 | 0.331 | 0.213
HCC-827 | 0.216 | 0.191 | 0.161 | 0.165 | 0.189 | 1.05 | 0.976 | 0.951 | 1.19 | 1.05 | 0.99 | 1.04 | 1.05 | – | 0.571 | 0.341 | 0.325 | 0.294 | – | 0.333
IA-LM | 1.07 | 0.8 | 0.755 | 0.578 | 0.725 | 0.397 | 0.246 | 0.349 | 0.315 | 0.442 | 0.334 | 0.402 | 0.341 | 0.336 | 0.186 | – | – | – | – | –
LCLC-103H | – | – | – | – | – | 0.572 | 0.596 | 0.533 | 0.578 | 0.705 | 0.616 | 0.615 | 0.638 | 0.431 | 0.422 | 0.767 | 0.714 | 0.682 | 0.695 | 0.367
NCI-H441 | – | – | – | – | – | 0.479 | 0.457 | 0.41 | 0.462 | 0.427 | 0.572 | 0.466 | 0.304 | 0.261 | 0.206 | 0.25 | 0.227 | 0.22 | 0.278 | 0.214
NCI-H522 | – | – | – | – | – | – | – | – | – | – | – | – | – | – | – | 0.651 | 0.585 | 0.604 | 0.729 | 0.617
NCI-H1299 | 0.966 | 0.936 | 0.944 | 0.894 | 0.91 | 0.905 | 0.858 | 0.834 | 0.654 | 0.687 | 0.683 | 0.407 | 0.223 | 0.246 | 0.198 | – | – | – | – | –
NCI-H1563 | 0.968 | 0.657 | 0.871 | 1.01 | 0.907 | 0.68 | 0.62 | 0.622 | 0.694 | 0.59 | 0.648 | 0.742 | 0.626 | 0.604 | 0.718 | – | – | – | – | –
NCI-H1648 | – | – | – | – | – | – | – | – | – | – | – | – | – | – | – | 0.453 | 0.557 | 0.518 | 0.4 | 0.391
NCI-H1703 | 1.17 | 1.05 | 0.861 | 0.961 | 1.35 | 0.261 | 0.21 | 0.25 | 0.253 | 0.246 | 0.239 | 0.214 | 0.218 | 0.238 | 0.196 | – | – | – | – | –
NCI-H2228 | 1.87 | 1.39 | 1.24 | 0.825 | 1.18 | 0.74 | 0.223 | 0.343 | 0.513 | 0.439 | 0.539 | 0.371 | 0.465 | 0.208 | 0.255 | – | – | – | – | –
NCI-H2342 | – | – | – | – | – | – | – | – | – | – | – | – | – | – | – | 0.717 | 0.672 | 0.727 | 0.784 | 0.714
SW 900 | – | – | – | – | – | – | – | – | – | – | – | – | – | – | – | 0.51 | 0.429 | 0.505 | 0.412 | 0.407
